From US12637428B2, “Isoquinoline derivatives as SIK2 inhibitors” (Cancer Research Technology Limited, priority 2019, dated 2026)

Key:
Assay type in all cases: biochemical
SIK2 = target: T1, SIK2 (Homo sapiens, UniProt Q9H0K1); assay: SIK2 kinase assay, IMAP fluorescence polarization; details: 50 or 100 μM ATP, average
T1 construct: purchased Life Technologies
Protocol: (§1) SIK2, SIK1, SIK3, Abl, Src and EPHA2 Kinase Assays
(§2) SIK2, SIK1, SIK3, Abl, Src and EPHA2 assays were performed using an IMAP fluorescence polarization assay format (Molecular Devices Inc.). 0.6-13 nM of each kinase (Life Technologies) was incubated for 60 min at room temperature with 100 nM of either FAM-Abltide, FAM-Srctide or FAM-HDAC protein derived peptide (synthesized by Alta Biosciences, Birmingham UK). Assays were carried out in the presence of 50 or 100 μM ATP in either 20 mM Tris buffer (pH 7.2) containing 4 mM MgCl2, 0.2% BSA and 2 mM DTT (SIK2, SIK1, SIK3, Abl, Src); or 20 mM Tris buffer (pH 8.5) containing 20 mM MgCl2, 0.5% BSA, 0.2% Triton and 5 mM DTT (EPHA2). Typically, dose response analyses were performed over concentration ranges from 0.00005-1 μM. Reactions were stopped by adding 2 assay volumes of 0.25% (v/v) IMAP binding reagent in either an 85:15 ratio (SIK2, SIK1, SIK3, Abl, EPHA2) or 30:70 ratio (Src) of IMAP binding buffers A and B (Molecular Devices). After incubation to allow the detection reagents to bind to the phosphorylated peptide, fluorescence polarization was measured on a Tecan Infinite plate reader at excitation (470 nm) and emission (530 nm) wavelengths. Inhibition was calculated using no inhibitor and no enzyme controls as 0 and 100% inhibition, respectively.
(§3) Table 3 provides details of the inhibitory constant (nM) of compounds of the invention at SIK1, SIK2 and SIK3 and other kinases.

SIK1 = target: T2, SIK1 (Homo sapiens, UniProt P57059); assay: SIK1 kinase assay, IMAP fluorescence polarization; details: 50 or 100 μM ATP, average
T2 construct: purchased Life Technologies
Protocol: as §1, §2, §3

SIK3 = target: T3, SIK3 (Homo sapiens, UniProt Q9Y2K2); assay: SIK3 kinase assay, IMAP fluorescence polarization; details: 50 or 100 μM ATP, average
T3 construct: purchased Life Technologies
Protocol: as §1, §2, §3

Abl = target: T4, Abl (Homo sapiens, UniProt P00519); assay: Abl kinase assay, IMAP fluorescence polarization; details: 50 or 100 μM ATP, average
T4 construct: purchased Life Technologies
Protocol: as §1, §2, §3

Src = target: T5, Src (Homo sapiens, UniProt P12931); assay: Src kinase assay, IMAP fluorescence polarization; details: 50 or 100 μM ATP, average
T5 construct: purchased Life Technologies
Protocol: as §1, §2, §3

EPHA2 = target: T6, EPHA2 (Homo sapiens, UniProt P29317); assay: EPHA2 kinase assay, IMAP fluorescence polarization; details: 50 or 100 μM ATP, Tris pH 8.5, average
T6 construct: purchased Life Technologies
Protocol: as §1, §2, §3

T1 sequence (Q9H0K1 whole entry): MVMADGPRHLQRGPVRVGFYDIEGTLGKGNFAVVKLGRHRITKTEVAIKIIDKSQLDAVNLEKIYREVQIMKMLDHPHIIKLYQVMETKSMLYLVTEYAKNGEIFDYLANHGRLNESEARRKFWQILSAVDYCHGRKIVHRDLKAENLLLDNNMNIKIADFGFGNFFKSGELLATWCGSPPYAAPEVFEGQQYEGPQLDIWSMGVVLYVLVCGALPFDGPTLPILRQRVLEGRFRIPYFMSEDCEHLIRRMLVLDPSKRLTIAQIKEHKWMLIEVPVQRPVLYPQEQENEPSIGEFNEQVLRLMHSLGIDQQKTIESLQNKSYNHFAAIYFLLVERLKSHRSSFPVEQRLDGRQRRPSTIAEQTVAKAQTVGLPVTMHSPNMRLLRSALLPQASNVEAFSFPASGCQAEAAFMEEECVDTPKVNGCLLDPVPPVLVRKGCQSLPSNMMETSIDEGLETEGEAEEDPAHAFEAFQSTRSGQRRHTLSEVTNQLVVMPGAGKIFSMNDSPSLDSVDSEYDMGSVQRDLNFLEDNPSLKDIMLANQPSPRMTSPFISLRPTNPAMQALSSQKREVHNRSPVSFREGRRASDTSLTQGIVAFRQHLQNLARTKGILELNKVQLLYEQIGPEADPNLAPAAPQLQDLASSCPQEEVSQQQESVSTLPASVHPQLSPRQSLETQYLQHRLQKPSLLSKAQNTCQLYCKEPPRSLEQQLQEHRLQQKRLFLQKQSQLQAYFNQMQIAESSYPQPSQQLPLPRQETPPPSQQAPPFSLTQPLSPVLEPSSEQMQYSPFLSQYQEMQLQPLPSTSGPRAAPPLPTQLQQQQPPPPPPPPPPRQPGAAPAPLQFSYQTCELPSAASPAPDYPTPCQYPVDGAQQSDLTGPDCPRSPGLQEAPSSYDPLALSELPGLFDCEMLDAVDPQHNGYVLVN
T3 sequence (Q9Y2K2 whole entry): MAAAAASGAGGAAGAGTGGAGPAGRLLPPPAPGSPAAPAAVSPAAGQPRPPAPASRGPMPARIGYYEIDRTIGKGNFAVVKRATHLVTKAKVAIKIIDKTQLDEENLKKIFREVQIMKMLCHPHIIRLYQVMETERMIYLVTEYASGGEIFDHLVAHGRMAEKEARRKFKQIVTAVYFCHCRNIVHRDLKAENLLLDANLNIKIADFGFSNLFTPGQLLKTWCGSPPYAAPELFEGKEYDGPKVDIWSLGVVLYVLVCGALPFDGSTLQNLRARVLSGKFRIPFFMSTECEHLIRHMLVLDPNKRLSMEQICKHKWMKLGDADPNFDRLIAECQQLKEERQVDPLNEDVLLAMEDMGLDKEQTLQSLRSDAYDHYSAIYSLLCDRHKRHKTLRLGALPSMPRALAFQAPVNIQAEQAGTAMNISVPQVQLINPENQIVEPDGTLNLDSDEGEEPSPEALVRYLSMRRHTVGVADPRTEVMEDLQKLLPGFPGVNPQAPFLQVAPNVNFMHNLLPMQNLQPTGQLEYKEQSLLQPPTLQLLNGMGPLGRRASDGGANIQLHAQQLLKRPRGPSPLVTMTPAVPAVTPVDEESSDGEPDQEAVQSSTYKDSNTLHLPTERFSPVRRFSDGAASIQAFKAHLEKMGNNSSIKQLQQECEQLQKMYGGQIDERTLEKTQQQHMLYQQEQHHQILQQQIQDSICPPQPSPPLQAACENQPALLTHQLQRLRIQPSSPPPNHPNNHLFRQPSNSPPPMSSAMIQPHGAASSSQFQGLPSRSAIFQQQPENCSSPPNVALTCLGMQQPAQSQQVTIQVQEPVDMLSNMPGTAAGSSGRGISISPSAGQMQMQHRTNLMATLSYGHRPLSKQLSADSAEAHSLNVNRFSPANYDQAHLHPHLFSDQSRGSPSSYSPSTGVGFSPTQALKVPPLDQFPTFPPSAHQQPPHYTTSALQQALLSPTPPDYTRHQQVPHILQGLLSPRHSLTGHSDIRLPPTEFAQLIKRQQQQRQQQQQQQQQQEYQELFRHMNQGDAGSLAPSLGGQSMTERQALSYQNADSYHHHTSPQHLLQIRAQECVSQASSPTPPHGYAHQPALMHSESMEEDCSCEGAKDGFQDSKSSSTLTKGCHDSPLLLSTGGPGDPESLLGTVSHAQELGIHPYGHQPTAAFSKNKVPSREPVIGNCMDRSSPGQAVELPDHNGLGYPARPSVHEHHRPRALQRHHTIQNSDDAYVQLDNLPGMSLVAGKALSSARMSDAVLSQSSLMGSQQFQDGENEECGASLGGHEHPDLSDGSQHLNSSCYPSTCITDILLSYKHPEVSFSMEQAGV
T2 sequence (P57059 whole entry): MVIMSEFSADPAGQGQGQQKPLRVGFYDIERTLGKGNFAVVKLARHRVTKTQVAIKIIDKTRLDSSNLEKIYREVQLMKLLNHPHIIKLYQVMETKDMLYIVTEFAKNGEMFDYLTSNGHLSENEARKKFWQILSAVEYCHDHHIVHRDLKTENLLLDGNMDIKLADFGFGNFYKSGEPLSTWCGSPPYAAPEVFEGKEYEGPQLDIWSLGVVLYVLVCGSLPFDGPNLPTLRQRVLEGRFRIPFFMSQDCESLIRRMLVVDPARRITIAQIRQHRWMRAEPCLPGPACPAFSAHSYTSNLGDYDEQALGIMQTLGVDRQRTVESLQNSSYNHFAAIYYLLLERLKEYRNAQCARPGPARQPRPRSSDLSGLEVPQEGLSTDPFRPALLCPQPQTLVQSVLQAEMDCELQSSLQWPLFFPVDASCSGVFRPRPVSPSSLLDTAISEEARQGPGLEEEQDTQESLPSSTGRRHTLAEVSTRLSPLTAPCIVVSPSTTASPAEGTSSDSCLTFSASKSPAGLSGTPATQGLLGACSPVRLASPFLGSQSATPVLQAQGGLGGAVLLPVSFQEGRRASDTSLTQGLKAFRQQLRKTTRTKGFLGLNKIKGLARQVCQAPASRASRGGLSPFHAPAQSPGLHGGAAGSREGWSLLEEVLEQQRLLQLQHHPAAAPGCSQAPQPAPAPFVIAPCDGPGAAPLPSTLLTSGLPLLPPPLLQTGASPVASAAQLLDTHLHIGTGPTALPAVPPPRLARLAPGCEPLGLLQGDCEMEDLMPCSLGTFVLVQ
T6 sequence (P29317 24-976): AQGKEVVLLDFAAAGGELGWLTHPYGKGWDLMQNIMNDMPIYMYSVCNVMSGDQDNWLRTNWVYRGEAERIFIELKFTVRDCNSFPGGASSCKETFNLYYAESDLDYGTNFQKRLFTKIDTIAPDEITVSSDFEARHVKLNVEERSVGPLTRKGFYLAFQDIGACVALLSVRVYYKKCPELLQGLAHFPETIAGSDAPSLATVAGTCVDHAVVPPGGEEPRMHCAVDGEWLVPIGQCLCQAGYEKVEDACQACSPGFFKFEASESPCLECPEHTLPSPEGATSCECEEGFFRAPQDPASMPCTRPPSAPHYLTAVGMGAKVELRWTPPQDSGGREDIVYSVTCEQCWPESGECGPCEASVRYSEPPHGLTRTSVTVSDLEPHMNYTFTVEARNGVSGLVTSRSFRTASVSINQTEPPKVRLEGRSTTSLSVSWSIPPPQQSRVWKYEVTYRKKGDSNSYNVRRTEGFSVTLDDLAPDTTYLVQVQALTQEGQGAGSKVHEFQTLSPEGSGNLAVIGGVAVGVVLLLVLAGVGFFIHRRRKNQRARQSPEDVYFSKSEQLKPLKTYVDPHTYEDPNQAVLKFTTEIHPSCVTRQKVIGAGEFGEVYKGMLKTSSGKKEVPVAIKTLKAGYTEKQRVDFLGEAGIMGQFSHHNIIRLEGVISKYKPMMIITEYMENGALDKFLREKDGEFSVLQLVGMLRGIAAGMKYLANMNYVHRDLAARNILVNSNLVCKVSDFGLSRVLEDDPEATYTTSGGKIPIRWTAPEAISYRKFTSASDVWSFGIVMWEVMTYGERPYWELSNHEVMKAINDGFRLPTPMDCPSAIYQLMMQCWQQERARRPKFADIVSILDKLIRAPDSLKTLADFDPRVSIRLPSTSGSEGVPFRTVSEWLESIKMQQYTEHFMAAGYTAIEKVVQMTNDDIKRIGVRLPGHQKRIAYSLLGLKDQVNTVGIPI
T4 sequence (P00519 whole entry): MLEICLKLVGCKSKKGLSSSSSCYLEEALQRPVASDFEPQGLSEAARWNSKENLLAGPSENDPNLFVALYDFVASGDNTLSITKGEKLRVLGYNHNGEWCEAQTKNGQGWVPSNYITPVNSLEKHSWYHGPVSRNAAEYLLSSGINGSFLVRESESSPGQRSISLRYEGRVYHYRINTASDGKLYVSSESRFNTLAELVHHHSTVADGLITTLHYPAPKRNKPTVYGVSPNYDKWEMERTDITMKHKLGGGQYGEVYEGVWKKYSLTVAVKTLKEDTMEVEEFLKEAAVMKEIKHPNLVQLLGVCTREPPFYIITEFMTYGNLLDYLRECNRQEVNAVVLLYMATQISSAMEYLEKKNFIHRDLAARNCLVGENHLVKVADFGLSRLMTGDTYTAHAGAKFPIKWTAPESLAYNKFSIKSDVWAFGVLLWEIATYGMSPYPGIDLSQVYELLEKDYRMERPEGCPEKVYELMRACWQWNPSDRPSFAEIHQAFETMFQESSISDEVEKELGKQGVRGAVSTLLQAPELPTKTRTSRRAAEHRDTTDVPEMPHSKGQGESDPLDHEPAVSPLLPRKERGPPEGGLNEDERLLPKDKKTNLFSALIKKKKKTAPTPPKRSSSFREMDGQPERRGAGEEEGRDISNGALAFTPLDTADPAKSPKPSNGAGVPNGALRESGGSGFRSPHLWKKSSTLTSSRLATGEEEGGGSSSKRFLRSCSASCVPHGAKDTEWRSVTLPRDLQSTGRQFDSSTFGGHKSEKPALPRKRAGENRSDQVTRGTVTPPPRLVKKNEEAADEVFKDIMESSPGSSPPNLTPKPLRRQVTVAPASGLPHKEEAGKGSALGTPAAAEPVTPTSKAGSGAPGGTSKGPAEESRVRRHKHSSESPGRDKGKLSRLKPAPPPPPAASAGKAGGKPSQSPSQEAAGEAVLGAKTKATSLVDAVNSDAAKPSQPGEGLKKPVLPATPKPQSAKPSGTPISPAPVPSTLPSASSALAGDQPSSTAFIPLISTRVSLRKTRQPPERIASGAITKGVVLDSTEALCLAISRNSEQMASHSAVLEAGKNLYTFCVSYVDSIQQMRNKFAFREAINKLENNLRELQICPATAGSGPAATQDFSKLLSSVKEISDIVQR

SMILES	Ki (SIK2) [nM]	Ki (SIK1) [nM]	Ki (SIK3) [nM]	Ki (Abl) [nM]	Ki (Src) [nM]	Ki (EPHA2) [nM]
Cc1cccc(Cl)c1-c1cc(NC2CN(C)C2)c2ccncc2c1 [Example 67, 7-(2-chloro-6-methyl-phenyl)-N-(1-methylazetidin-3-yl)isoquinolin-5-amine]	11.8	10.4	27.2	92.9	249	50.4
Cc1cccc(Cl)c1-c1cc(NC2CCN(C)CC2)c2cc(N)ncc2c1 [Example 62, 7-(2-Chloro-6-methyl-phenyl)-N5-(1-methyl-4-piperidyl)isoquinoline-3,5-diamine]	0.133	0.492	2.94	209	313	199
Cc1cccc(F)c1-c1cc(NC[C@H]2CCNC2)c2cc(N)ncc2c1 [Example 9, 7-(2-fluoro-6-methyl-phenyl)-N5-[[(3S)-pyrrolidin-3-yl]methyl]isoquinoline-3,5-diamine]	0.0411	0.316	0.269	0.687	217	166
CNC[C@H]1CCCN(c2cc(-c3c(C)cccc3F)cc3cnc(N)cc23)C1 [Example 21, 7-(2-fluoro-6-methyl-phenyl)-5-[(3R)-3-(methylamino-methyl)-1-piperidyl]isoquinolin-3-amine]	0.274	0.594	9.36	10.5	50.4	41.5
Cc1cccc(F)c1-c1cc(N[C@@H]2CCN(C)C2)c2cc(N)ncc2c1 [Example 69, 7-(2-fluoro-6-methyl-phenyl)-N5-[(3R)-1-methylpyrrolidin-3-yl]isoquinoline-3,5-diamine]	0.0972	0.3	0.986	5.14	35.8	> 1000
Cc1cccc(F)c1-c1cc(N2CC(N(C)C)C2)c2cc(N)ncc2c1 [Example 79, 5-[3-(dimethylamino)azetidin-1-yl]-7-(2-fluoro-6-methyl-phenyl)isoquinolin-3-amine]	0.101	0.747	2.24	12.7	106	84.1
Cc1cccc(F)c1-c1cc(O[C@@H]2CCNC2)c2cc(N)ncc2c1 [Example 48, 7-(2-fluoro-6-methyl-phenyl)-5-[(3R)-pyrrolidin-3-yl]oxy-isoquinolin-3-amine]	0.089	0.338	0.298	22.6	320	227
Cc1cccc(F)c1-c1cc(NC[C@@H]2CCCCN2)c2cc(N)ncc2c1 [Example 14, 7-(2-fluoro-6-methyl-phenyl)-N5-[[(2S)-2-piperidyl]methyl]isoquinoline-3,5-diamine]	0.0969	0.601	2.43	8.01	67.8	59.5
Cc1cccc(F)c1-c1cc(N[C@@H]2CCCNC2)c2cc(N)ncc2c1 [Example 25, 7-(2-fluoro-6-methyl-phenyl)-N5-[(3R)-3-piperidyl]isoquinoline-3,5-diamine]	0.132	0.546	1.28	4.96	> 1000	> 1000
CN[C@@H]1CCN(c2cc(-c3c(C)cccc3F)cc3cnc(N)cc23)C1 [Example 24, 7-(2-fluoro-6-methyl-phenyl)-5-[(3R)-3-(methylamino)pyrrolidin-1-yl]isoquinolin-3-amine]	0.402	2.34	7.5	34	327	148
Cc1cccc(F)c1-c1cc(N2CCC(N(C)C)CC2)c2cc(N)ncc2c1 [Example 57, 5-[4-(dimethylamino)-1-piperidyl]-7-(2-fluoro-6-methyl-phenyl)isoquinolin-3-amine]	0.147	1.13	2.45	59.9	303	150

Further lines, results first:

Ki (SIK2) [nM]	Ki (SIK1) [nM]	Ki (SIK3) [nM]	Ki (Abl) [nM]	Ki (Src) [nM]	Ki (EPHA2) [nM]	SMILES
0.184	0.409	1.46	26.4	27.4	20	CCN1CCC(Nc2cc(-c3c(C)cccc3Cl)cc3cnc(N)nc23)CC1 [Example 128, 6-(2-chloro-6-methyl-phenyl)-N8-(1-ethyl-4-piperidyl)quinazoline-2,8-diamine]
0.0274	0.183	0.301	0.243	0.974	1.08	CC(=O)Nc1cc2c(NC3CCN(C)CC3)cc(-c3c(C)cccc3F)cc2cn1 [Example 115, N-[7-(2-Fluoro-6-methyl-phenyl)-5-[(1-methyl-4-piperidyl)amino]-3-isoquinolyl]acetamide]
0.168	0.647	1.22	7.16	30.8	149	CCN1CCC(Nc2cc(-c3c(C)cccc3F)cc3cnc(N)nc23)CC1 [Example 127, N8-(1-Ethyl-4-piperidyl)-6-(2-fluoro-6-methyl-phenyl)quinazoline-2,8-diamine]
0.617	12	20.3	16.4	1600	> 1000	CC(=O)NC1CCN(c2cc(-c3c(C)cccc3F)cc3cnc(N)cc23)CC1 [Example 114, N-[1-[3-amino-7-(2-fluoro-6-methyl-phenyl)-5-isoquinolyl]-4-piperidyl]acetamide]
0.0838	0.656	1.98	6.72	34.3	22.3	Cc1cccc(F)c1-c1cc(N[C@H]2CCCN(C)C2)c2cc(N)ncc2c1 [Example 86, 7-(2-fluoro-6-methyl-phenyl)-N5-[(3S)-1-methyl-3-piperidyl] isoquinoline-3,5-diamine]
1.1	1.9	8.89	27.6	147	260	Cc1cccc(F)c1-c1cc(NC(=O)C2CCNC2)c2cc(N)ncc2c1 (stereo not drawn) [Example 136, N-[3-amino-7-(2-fluoro-6-methyl-phenyl)-5-isoquinolyl] pyrrolidine-3-carboxamide]
0.0472	0.338	0.354	6.13	17.1	48.6	Cc1cccc(F)c1-c1cc(NC2CCNCC2)c2nc(N)ncc2c1 [Example 124, 6-(2-fluoro-6-methyl-phenyl)-N8-(4-piperidyl)quinazoline-2,8-diamine]
19.5	123	553	28.8	> 10000	> 10000	Cc1cccc(F)c1-c1cc(N2CC[C@@H](O)C2)c2cc(N)ncc2c1 [Example 106, (3R)-1-[3-amino-7-(2-fluoro-6-methyl-phenyl)-5-isoquinolyl]pyrrolidin-3-ol]
0.0609	0.348	0.271	1.13	6.32	34.8	Cc1cccc(F)c1-c1cc(NC2CCNCC2)c2c(C#N)c(N)ncc2c1 [Example 133, 3-Amino-7-(2-fluoro-6-methyl-phenyl)-5-(4-piperidylamino)isoquinoline-4-carbonitrile]
